“And” between values parts separate entries of the source, which are not always exact repeats. Identical values can stand only once.
Assay: Oral bioavailability studies in marmosets (plasma concentration by bioassay)
Type: in vivo
Conditions: marmoset; for Plasma Concentrations: individual animals
Method: The bioavailability in marmosets and dogs was determined by sampling the blood via the femoral vein at various time points after administering the renin inhibitor compounds of the invention in polyethylene glycol 400 at an intragastric dose of 10 mg/kg or at an intravenous dose of 1 mg/kg. Compound concentration in plasma was determined using the bioassay technique described below. The percent bioavailability was calculated by dividing the area under the concentration-vs.-time curve obtained from the intragastric experiment by the area under the concentration-vs.-time curve obtained from the intravenous experiment (adjusting for different doses), and multiplying the result by 100%. The bioavailibility of Example 1 compound is 27% in marmosets and 33% in dogs.
Renin inhibitor plasma concentrations were determined by a bioassay. The plasma samples were extracted with acetonitrile and the extract was evaporated to dryness under nitrogen. Residue was dissolved in 4% bovine serum albumin containing 0.9% NaCl and 5% EDTA. The dissolved residue (0.1 ml) was incubated with a reaction mixture containing human plasma (0.12 ml), 5% phenylmethysulfonylfluoride (1.2 ul), 10% neomycin (2.4 ul), 0.5 M TES buffer (pH 7.4, 24 ul), and 0.6 mU/ml recombinant human renin (1000 U/mg, 50 ul) at 37° C. for 90 minutes. The renin activity was determined by a standard angiotensin I radioimmunoassay (New England Nuclear Corp.). The amount of test compound in the plasma was determined by comparing the extent of inhibition of renin activity with that produced by a known amount of test compound added to plasma and analyzed above.

- Plasma Concentrations (IG at 10 mg/kg, Test Run A, 30 min, 10 mg/kg): 7258 ng/mL and 9322 ng/mL
- Plasma Concentrations (IG at 10 mg/kg, Test Run A, 1 hr, 10 mg/kg): 1989 ng/mL and 1751 ng/mL
- Plasma Concentrations (IG at 10 mg/kg, Test Run A, 2 hr, 10 mg/kg): 1525 ng/mL and 1811 ng/mL
- Plasma Concentrations (IG at 10 mg/kg, Test Run A, 3 hr, 10 mg/kg): 5289 ng/mL and 6935 ng/mL
- Plasma Concentrations (IG at 10 mg/kg, Test Run A, 4 hr, 10 mg/kg): 742 ng/mL and 1766 ng/mL and 1217 ng/mL
- Plasma Concentrations (IG at 10 mg/kg, Test Run A, 5 hr, 10 mg/kg): 369 ng/mL and 1397 ng/mL and 945 ng/mL
- Plasma Concentrations (IG at 10 mg/kg, Test Run A, 6 hr, 10 mg/kg): 3177 ng/mL and 4412 ng/mL
- Plasma Concentrations (IG at 10 mg/kg, Test Run A, 8 hr, 10 mg/kg): 3036 ng/mL and 3800 ng/mL
- Plasma Concentrations (IG at 10 mg/kg, Test Run B, 30 min, 10 mg/kg): 1016 ng/mL and 1126 ng/mL
- Plasma Concentrations (IG at 10 mg/kg, Test Run B, 1 hr, 10 mg/kg): 416 ng/mL and 5266 ng/mL and 12300 ng/mL
- Plasma Concentrations (IG at 10 mg/kg, Test Run B, 2 hr, 10 mg/kg): 519 ng/mL and 4847 ng/mL and 13485 ng/mL
- Plasma Concentrations (IG at 10 mg/kg, Test Run B, 3 hr, 10 mg/kg): 2751 ng/mL and 3640 ng/mL and 1400 ng/mL
- Plasma Concentrations (IG at 10 mg/kg, Test Run B, 4 hr, 10 mg/kg): 459 ng/mL and 4502 ng/mL and 11470 ng/mL
- Plasma Concentrations (IG at 10 mg/kg, Test Run B, 5 hr, 10 mg/kg): 545 ng/mL and 3718 ng/mL and 7783 ng/mL
- Plasma Concentrations (IG at 10 mg/kg, Test Run B, 6 hr, 10 mg/kg): 2721 ng/mL and 1950 ng/mL
- Plasma Concentrations (IG at 10 mg/kg, Test Run B, 8 hr, 10 mg/kg): 1566 ng/mL and 1868 ng/mL
- Plasma Concentrations (IV at 1 mg/kg, Test Run C, 2 min, 1 mg/kg): 21579 ng/mL and 16641 ng/mL
- Plasma Concentrations (IV at 1 mg/kg, Test Run C, 30 min, 1 mg/kg): 10359 ng/mL and 7921 ng/mL
- Plasma Concentrations (IV at 1 mg/kg, Test Run C, 1 hr, 1 mg/kg): 2665 ng/mL and 2793 ng/mL
- Plasma Concentrations (IV at 1 mg/kg, Test Run C, 2 hr, 1 mg/kg): 795 ng/mL and 2362 ng/mL and 1667 ng/mL
- Plasma Concentrations (IV at 1 mg/kg, Test Run C, 3 hr, 1 mg/kg): 404 ng/mL and 562 ng/mL
- Plasma Concentrations (IV at 1 mg/kg, Test Run C, 4 hr, 1 mg/kg): 608 ng/mL and 1223 ng/mL and 1068 ng/mL
- Plasma Concentrations (IV at 1 mg/kg, Test Run C, 6 hr, 1 mg/kg): 208 ng/mL and 245 ng/mL
- Plasma Concentrations (IV at 1 mg/kg, Test Run D, 2 min, 1 mg/kg): 7875 ng/mL and 5900 ng/mL
- Plasma Concentrations (IV at 1 mg/kg, Test Run D, 15 min, 1 mg/kg): 7239 ng/mL and 2016 ng/mL and 897 ng/mL
- Plasma Concentrations (IV at 1 mg/kg, Test Run D, 30 min, 1 mg/kg): 2356 ng/mL and 1189 ng/mL
- Plasma Concentrations (IV at 1 mg/kg, Test Run D, 1 hr, 1 mg/kg): 1250 ng/mL and 1614 ng/mL and 3149 ng/mL
- Plasma Concentrations (IV at 1 mg/kg, Test Run D, 2 hr, 1 mg/kg): 1004 ng/mL and 1055 ng/mL
- Plasma Concentrations (IV at 1 mg/kg, Test Run D, 3 hr, 1 mg/kg): 451 ng/mL and 557 ng/mL and 1009 ng/mL
- Plasma Concentrations (IV at 1 mg/kg, Test Run D, 4 hr, 1 mg/kg): 153 ng/mL and 587 ng/mL and 506 ng/mL
- Plasma Concentrations (IV at 1 mg/kg, Test Run D, 6 hr, 1 mg/kg): 84 ng/mL and 158 ng/mL
- concentration at 2 min (plasma, iv, 1 mg/kg, IV at 1 mg/kg, 2 min, Test Run D table, read-out: Plasma Concentrations, Mean ± SE): 11600 ± 2770 ng/mL
- concentration at 15 min (plasma, iv, 1 mg/kg, IV at 1 mg/kg, 15 min, Test Run D table, read-out: Plasma Concentrations, Mean ± SE): 7300 ± 2250 ng/mL
- concentration at 30 min (plasma, iv, 1 mg/kg, IV at 1 mg/kg, 30 min, Test Run D table, read-out: Plasma Concentrations, Mean ± SE): 4940 ± 1510 ng/mL
- concentration at 1 h (plasma, iv, 1 mg/kg, IV at 1 mg/kg, 1 hr, Test Run D table, read-out: Plasma Concentrations, Mean ± SE): 2430 ± 326 ng/mL
SMILES: C#CC[C@H](NC(=O)C(CC(=O)N(C)CCN(C)C)Cc1ccccc1)C(=O)NC(CC1CCCCC1)[C@@H](O)C(O)CC(C)C (relative stereo) [Example 1, N1-[1R*-[[[1S,1R*-(cyclohexylmethyl)-2S*,3R*-dihydroxy-5-methylhexyl]amino]carbonyl]-3-butynyl]-N4-[2-(dimethylamino)ethyl]-N4-methyl-2S*-(phenylmethyl)butanediamide]
- Plasma Concentrations (IV at 1 mg/kg, Test Run C, 15 min, 1 mg/kg): 6756 ng/mL and 15283 ng/mL and 11628 ng/mL
